{
  "source": "patent US20090285916A1",
  "about": "“METHODS OF DIAGNOSIS AND TREATMENT OF EQUINE LAMINITIS AND CUSHING'S SYNDROME” (Pegasus Equine Diagnostics Limited, priority 2006, published 2009)",
  "key": {"equine digital arteries": {"system": "equine digital arteries", "conditions": "reference 38; cited from earlier work"}, "[1]": {"system": "PPID (pituitary pars intermedia dysfunction)", "assay": "Anecdotal evidence on melatonin and pergolide dosing in PPID horses and ponies", "type": "in vivo", "source_text": "From a chronological perspective obviously both groups of horses were aged (>16 years), but from the viewpoint of the Neuroendocrine Theory of Aging (21) the PPID group might be considered to be of greater “biological age” than the control group. […] There was also a pronounced dopamine rhythm phase shift and amplitude decrease for the PPID group in June and September, in addition to evidence of serotonin acrophase amplitudes being increased in September. These observations are consistent with the reduction in dopamine and concomitant increase in serotonin implied in the treatment of PPID horses with dopamine agonists and serotonin antagonists. […] This may also apply to the subsequent increases in follicle density and length plus coarsening of the hair structure that have been observed. It is worth noting that the significant differences between the groups in our results appear to pre-date the traditionally acknowledged seasons (spring, autumn) of increased laminitis susceptibility by approximately three months (as well as being present during such seasons); this is perhaps not when most practitioners would expect them. […] The situation may, of course, be exacerbated by other trigger factors for laminitis becoming part of the external conditions to which the horse is exposed, e.g. access to a flush of spring grass. Additionally, it might be expected that dopamine and serotonin would be the dominant factors implicated in investigating PPID, as defined by past treatment regimes. However, when the results of the present study were examined as a whole, taking into account assay sensitivity, the neurohormone rhythms that were discovered and neurohormone rhythms that exist in the literature for healthy horses (14, 40, 41), the signals felt to be most reliable were dopamine plasma concentrations and serotonin:melatonin and dopamine:melatonin plasma concentration ratios, with serotonin:dopamine only represented for two times in June (as shown in FIG. 6). […]"}},
  "data": [
    {"smiles": "NCCc1c[nH]c2ccc(O)cc12", "note": "[5-HT, 5-hydroxytryptamine]", "values": [
      {"measurement": "sensitivity of digital arteries to vasoconstrictive actions compared with other peripheral blood vessels", "setting": "equine digital arteries", "result": "30-40 fold"}
    ]},
    {"smiles": "COc1ccc2[nH]cc(CCNC(C)=O)c2c1", "note": "[melatonin]", "values": [
      {"measurement": "shedding of the winter coat", "setting": "[1]; low dosage 1.5 mg, in the evening each day, all year round", "result": "facilitates shedding of the winter coat at the expected time"}
    ]},
    {"smiles": "CCCN1C[C@H](CSC)C[C@@H]2c3cccc4[nH]cc(c34)C[C@H]21", "note": "[pergolide]", "values": [
      {"measurement": "effect of changing time of day of administration, changing the dosage (by as little as 0.05 mg per day) and under or over dosing", "setting": "[1]", "result": "increase the probability that laminitis will occur"},
      {"measurement": "maximum dosage for ponies", "setting": "[1]; ponies", "result": 0.75, "unit": "mg"}
    ]}
  ]
}
